Reference: patent US20160089321A1, “ANTIPERSPIRANT COMPOSITIONS” (Johnson & Johnson Consumer Inc., priority 2014, published 2016)

Key:
[1] = Turbidity measurement caused by gel polymerization in alkaline pH (turbidimeter); assay type: physicochemical; settings: for Potential to gel polymerize in an alkaline environment: summary of Table 1
Description: In this test, a Hach model 2100 lab turbidimeter was used. One solution containing sodium hydroxide at pH 8.5 was prepared and each compound was tested at 10% concentration after mixing. […] The insoluble gel formed should act as an obstruction at the orifice of the sweat gland, reducing the flow of axillary perspiration.

[2] = target: T1, Bovine serum albumin (BSA) (Bos taurus, UniProt P02769); assay: In vitro active-protein interaction: BSA precipitation by the Bradford method; assay type: biochemical; settings: for Precipitation (BSA): screening test, 10% active solution; for Precipitation (BSA) / % BSA Precipitation: buffer pH 4.9; for % BSA Precipitation: dose-response assay
T1 construct: add 4 g of albumin (available from Sigma-Aldrich) from bovine serum (BSA) to 2000 mL of buffer solution; purchased Sigma-Aldrich A7906; host or cells: bovine serum (natural source)
T1 sequence (P02769 25-607): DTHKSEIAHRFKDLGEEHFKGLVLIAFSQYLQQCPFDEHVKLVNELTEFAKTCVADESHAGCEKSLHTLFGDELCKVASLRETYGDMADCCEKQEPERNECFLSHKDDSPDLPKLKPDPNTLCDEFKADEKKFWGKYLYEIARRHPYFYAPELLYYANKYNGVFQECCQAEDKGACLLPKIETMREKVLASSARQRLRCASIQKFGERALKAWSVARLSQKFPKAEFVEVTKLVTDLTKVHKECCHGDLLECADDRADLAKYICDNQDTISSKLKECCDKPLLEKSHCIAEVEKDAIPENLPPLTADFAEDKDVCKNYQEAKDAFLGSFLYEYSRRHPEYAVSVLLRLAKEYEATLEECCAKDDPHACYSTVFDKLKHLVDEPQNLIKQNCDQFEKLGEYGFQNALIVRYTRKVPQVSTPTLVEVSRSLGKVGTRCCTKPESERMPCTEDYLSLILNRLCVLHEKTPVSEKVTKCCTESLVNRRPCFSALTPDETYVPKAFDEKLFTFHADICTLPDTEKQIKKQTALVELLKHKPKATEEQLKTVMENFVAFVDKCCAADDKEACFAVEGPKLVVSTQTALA
Description: Method 2: In Vitro Study to Evaluate Active-Protein Interaction
Bovine serum albumin (BSA) was used as the reference protein to generate the calibration curve. […] The BSA granular, the BSA solution standard and Bradford reagent were all obtained from Sigma-Aldrich (Catalog Number: A7906, PO834, B6916). The buffer solution was made by adding 875 mL of 0.1 Molar sodium hydroxide (SpecSol) to 125 mL 0.1 Molar potassium dihydrogen phosphate (Merck) and its pH was adjusted to BSA isoelectric point (pH 4.9).
1. Prepare buffer by adding 875 mL of 0.1 Molar sodium hydroxide to 125 mL of 0.1 Molar potassium dihydrogen phosphate, adjusted to pH 4.9. This is the buffer solution used to make the active sample solution, the dose-response curve and the protein solution.
2. To prepare an active sample solution for initial screening, add 5 g of the active material to 50 mL of the buffer solution.
3. To prepare the protein solution, add 4 g of albumin (available from Sigma-Aldrich) from bovine serum (BSA) to 2000 mL of buffer solution.
4. To prepare the reaction solution, add 10 mL of the sample solution (step 2) to 50 mL of the protein solution.
5. To prepare the analytical solution, after filtration through a 0.45 μm membrane, 0.01 mL of reaction solution (step 4) to 3 mL of the Bradford reagent. Measure and record the absorbance at 595 nm. Determine the protein concentration by comparison to the standard curve.

[3] = compound at 10% in sodium hydroxide solution pH 8.5
[4] = mean turbidity, compound at 10% in sodium hydroxide solution pH 8.5

| Compound | Precipitation (BSA) [2] [%] | Physical Observation [1, 3] | Turbidity pH 8.5 [1, 4] [NTU] | other results |
| --- | --- | --- | --- | --- |
| CC(=O)[O-].CC(=O)[O-].[Ca+2] [Calcium acetate] | 5 |  |  | Physical Observation ([1]; pH 8.5): Liquid; Turbidity pH 8.5 ([1]; pH 8.5): 20.0 NTU |
| O.O.O.O.O.O.O.O=S(=O)([O-])[O-].[Mg+2] [Magnesium sulfate 7•H2O] | 12 | Liquid | 1.5 |  |
| [Mg+2].[O-][Cl+2]([O-])[O-].[O-][Cl+2]([O-])[O-] [Magnesium chlorate] | 4 | Liquid | 0.4 |  |
| O.O.O.O.O.O=S(=O)([O-])[O-].[Mg+2] [Magnesium sulfate 5•H2O] | 10 | Liquid | 1.5 |  |
| Aluminum chlorohydrate [reference compound] |  |  |  | % BSA Precipitation ([2]; 1% solution): 24%; % BSA Precipitation ([2]; 5% solution): 56%; % BSA Precipitation ([2]; 10% solution): 79%; % BSA Precipitation ([2]; 15% solution): 95% |
| CC(O)C(=O)O.N (stereo not shown) [Ammonium lactate] |  | Liquid | 1.2 |  |
| CC(O)C(=O)[O-].[Na+] (stereo not shown) [Sodium lactate] |  | Liquid | 0.5 |  |
| O=S(=O)([O-])c1ccc(O)cc1.O=S(=O)([O-])c1ccc(O)cc1.[Zn+2] [Zinc Phenolsulfonate, zinc phenolsulfonate] | 18 | Liquid | 1.8 | % BSA Precipitation ([2]; 1% solution): 5%; % BSA Precipitation ([2]; 5% solution): −1%; % BSA Precipitation ([2]; 10% solution): 21%; % BSA Precipitation ([2]; 15% solution): 31%; Potential to be clogging agents (protein precipitation) ([2]; summary of Tables 2 and 3): demonstrated potential to be clogging agents |
| CC(=O)[O-].[Na+] [Sodium acetate] | 5 |  |  | Physical Observation ([1]; pH 8.5): Liquid; Turbidity pH 8.5 ([1]; pH 8.5): 0.9 NTU |
| O.O=S(=O)([O-])[O-].[Mg+2] [Magnesium sulfate 1•H2O] | 11 | Liquid | 0.9 |  |
| O=S(=O)([O-])[O-].[Na+].[Na+] [Sodium sulfate] |  |  |  | Physical Observation ([1]; pH 8.5): Liquid; Turbidity pH 8.5 ([1]; pH 8.5): 1.8 NTU |
| CC(O)C(=O)[O-].CC(O)C(=O)[O-].[Zn+2] (stereo not shown) [Zinc Lactate (pharma), zinc lactate] |  | Gel Polymerization | 538.0 | Potential to gel polymerize in an alkaline environment [1]: high potential to gel polymerize |
| N.N.O=S(=O)(O)O [Ammonium sulfate] |  | Liquid | 1.1 |  |
| aluminum sesquichlorohydrate [Aluminium Sesquichlorohydrate, reference compound] | 100 | Gel Polymerization | 593.0 |  |
| CC(O)C(=O)[O-].CC(O)C(=O)[O-].[Zn+2] (stereo not shown) [Zinc Lactate (food), zinc lactate] |  | Gel Polymerization | 525.5 | Potential to gel polymerize in an alkaline environment [1]: high potential to gel polymerize |
| O=S(=O)([O-])[O-].[Mg+2] [Magnesium sulfate Andros] | 8 | Liquid | 0.5 |  |
| CC(O)C(=O)[O-].CC(O)C(=O)[O-].[Ca+2] (stereo not shown) [Calcium lactate] |  | Liquid | 0.9 |  |
